The source of these data is a melting point compilation (Tetko et al.; mined from patent text by program, amines drawn as free bases though some values may be those of a salt).

What is called melting point is the temperature, or range, at which the solid turns liquid.

Compound `COc1ccc(/C(=C\C=C\C2CC2)C(=O)O)cc1` had a melting point of 158 to 160 °C. With `CCCCCCCNC(=O)N(C)c1cccc(-c2ccc(C=C(C)C(=O)O)cc2OCC)c1`, the melting point was 123 °C. For `Cc1cc2nc(C(C)(C)C(=O)O)cn2nc1OCCCN1CCC(OC(c2ccccc2)c2ccccc2)CC1` the value was 122 °C; for `CCCCCCCCCCCCc1ccccc1C(SC(CC(=O)O)C(=O)O)C(=O)O` (centres undefined), 85 to 89 °C. For `CC(=O)N1CCN=C1Nc1cc(C)nn1C(C)C` the value was 145 to 147 °C; for `CC(C)C(NS(=O)(=O)c1ccccc1)C(=O)NO` (centres undefined), 154 to 155 °C. The result for `Cc1cccc2nc3n(c12)CC(c1ccccn1)S3` (centres undefined) reads 128 to 130 °C; that for `COc1ccc(-c2c(Cl)c(CN3C(=O)CCC3=O)nc3sc4c(c23)CCN(C(C)=O)C4)cc1OC`, 208 to 210 °C; that for `C=Cn1cc(C(=O)O)c(=O)c2cc(Cl)c(N3CCNCC3)nc21`, 272 to 274 °C. The compound `CSc1nnc(-c2ccc(F)cc2)c(-c2ccc(N(C)C)cc2)n1` displayed a melting point of 144 to 146 °C. Regarding `COc1ccc(C(=O)NCc2ccc(C)n2CCC#N)cc1OC`, the melting point was in the range of 175 to 176 °C.

`CCN1C(=O)C(C)(C)CCc2c1ccc(Nc1ncc(Cl)c(N[C@@H]3CCCC[C@H]3NS(C)(=O)=O)n1)c2OC` came in with a melting point of 123 to 126 °C.

Turning to `O=C1CCC(N2Cc3cc(CNC(=O)Nc4ccc(Br)cc4)ccc3C2=O)C(=O)N1` (centres undefined), the melting point lay in the range of 278 to 280 °C. The result for `CC(C=O)(CCc1c[nH]c2ccccc12)NC(=O)OC1C2CC3CC(C2)CC1C3` (centres undefined) reads 178 to 179 °C; that for `CCOC(=O)C1=C(O)c2cc3cc(OC)ccc3n2CC1`, 157 to 160 °C. For `Cc1cc(C#N)cc(C)c1Nc1nc(Nc2ccc(C#N)cc2)nc(Cl)c1Br` the value was 259 to 260 °C; for `O=C(CCN1CCN(c2ncc(F)cn2)CC1)Cc1cccs1`, 77 to 78 °C. The result for `COc1cc(CCl)ccc1OCc1nc(-c2cccc(C#N)c2)oc1C` reads 150 to 151 °C.

Compound `CC1=C(OS(=O)(=O)c2ccc(C)cc2)C(=O)C(C)O1` (centres undefined) gave a melting point of 70 to 72 °C. `O=c1c(CCCCc2ccccn2)cc2cccnc2n1-c1cccc([N+](=O)[O-])c1`: the melting point fell in the range of 163 to 165 °C. Consider `CC(C)Cn1c(=O)n(C)c(=O)c2c(N)ncnc21`, for which the melting point was in the range of 192 to 193 °C.

On to `N#Cc1ccc(NC(=O)c2c(O)ccc3ccccc23)c(OC(F)(F)F)c1`, for which the melting point is 169 °C. The result for `CSc1cc2c(cc1C(F)(F)F)N(C(=O)Nc1cccc(C(=O)Nc3ccncc3)c1)CC2` reads more than 200 °C. The result for `O=C(NC1CC1)c1ccc(N2CCN(Cc3cnc4c(c3)[nH]c(=O)n3cccc43)CC2)cc1` reads 270 to 272 °C; that for `O=[N+]([O-])c1ccc(O)c(C(F)(F)F)c1`, 103 to 104 °C.

`O=[N+]([O-])c1ccc(Oc2c(Cl)cc(C(F)(F)F)cc2Cl)cc1CO` registered a melting point of 143 °C.

In the case of `COc1ccc2c(c1)C(NC(C)C)=C(C(N)=O)S2=O` (centres undefined), the melting point was found to be 194 °C. Turning to `COC(=O)CCCCOc1ccc(CNC(=O)C2Cc3ccccc3N2S(=O)(=O)c2ccc(-c3cccc(C(F)(F)F)c3)cc2)cc1` (centres undefined), the melting point worked out at 50 °C. Turning to `O=c1[nH]c2cc(C(F)(F)F)c(C(F)(F)F)cc2[nH]c1=O`, the melting point is more than 250 °C. For `CC1CC(=O)NN=C1c1ccc(-n2ccnc2)nc1` (centres undefined) the value was 140 °C. `CC(=O)OCc1cc(=O)n2c(ccn2-c2ccccc2)n1` had a melting point of 172 to 175 °C. For `CC(C)(C)OC(=O)Cn1c(=O)c(=O)[nH]c2cc(Cl)c(Cl)cc21` the value was more than 300 °C; for `CC(=O)N(CCC(CCN1CCCCC1)(C(N)=O)c1ccccc1Cl)C(C)C` (centres undefined), 141 to 147 °C; for `Cc1cccc(N(C)C(=S)Oc2ccc(Cl)c(C)c2)n1`, 134 to 136 °C.

For the compound `COc1cc(OC)c2c(=O)cc(-c3ccc(C#N)cc3)oc2c1C1CCN(C)C1CO` (centres undefined), the melting point was in the range of 214 to 216 °C. For `CC(NC1=NS(=O)(=O)c2cc(Br)ccc2N1)C(C)(C)C` (centres undefined) the value was more than 220 °C; for `Clc1ccc2c(c1Cl)C=NCC2`, 196 to 200 °C; for `CCCc1c(OCc2ccccc2)ccc2c(=O)cc(CO)[nH]c12`, 197 to 199 °C. The compound `O=C(Cc1ccccc1)N=C1SCCN1Cc1ccc(Cl)nc1` yielded a melting point of 157 to 158 °C. For the compound `Clc1ccc2c(C3=CCNCC3)c[nH]c2c1Cl`, the melting point lay in the range of 252 to 254 °C. For `Oc1ccc(-c2ccc(O)c(Br)c2)cc1Br` the value was 118 to 121 °C; for `c1csc(C2=NOCCS2)c1`, 86 to 89 °C; for `COc1cc(C=CC(=O)c2ccccc2N(C)C)cc(OC)c1`, 160 °C.

`CCCCCCCCCCC[C@@H]1CC(O)=C(CCCCCC)C(=O)O1` displayed a melting point of 106 to 108 °C. The result for `CCc1nc2c(n1Cc1ccc(-c3ccccc3)cc1)C(=O)N(C)CN2c1ccc(Cl)cc1Cl` reads 216 to 217 °C; that for `Cc1ccc(Nc2cc(NCc3ccccc3)c(C(=O)O)cc2S(N)(=O)=O)cc1`, 128 °C; that for `NC(=O)N1C(=O)C(=C(OCC(=O)C2COCOC2)c2cccs2)c2cc(F)c(Cl)cc21`, 199 to 200 °C. `O=c1c2cnc(-c3ccccc3)nc2sn1CCN1CCOCC1` gave a melting point of 163 to 165 °C. Turning to `CCOc1ccc(-n2c(N)cc(=O)[nH]c2=S)cc1`, the melting point lay within 222 to 225 °C. The compound `O=C(CSc1ccc(C(F)(F)F)cn1)C12CC3CC(CC(C3)C1)C2` returned a melting point of 141 to 142 °C.

`COc1c(Cl)cc(NC(=O)OC(C)(C)C)cc1Cl`: the melting point was in the range of 115 to 116 °C. For `CCN(CC1CCCC1)c1nc2c(cc1CN(Cc1cc(C(F)(F)F)cc(C(F)(F)F)c1)c1nnn(C)n1)c(C)nn2C` the value was 84 to 86 °C. For `CCC(=O)c1cc2cc(OC)ccc2[nH]1`, the melting point fell in the range of 170 to 172 °C. For `CS(C)=Nc1cnc(Cl)cn1` the value was 119 to 120 °C; for `O=C(O)Cc1ccc(C(=O)c2ccc(Cl)cc2)s1`, 165 °C. The compound `N#CNC(=O)C12CC3CC(CC(C3)C1)C2` yielded a melting point of 164 to 166 °C. Take `CC#CCOc1ccc(S(=O)(=O)C2(C(=O)O)CCN(Cc3ccc(F)cc3)CC2)cc1`: the melting point turned out to be 106 °C. The result for `O=C1OC2(CC(c3cccc(-c4ccccc4)c3)=NO2)c2ccccc21` (centres undefined) reads 152 to 159 °C; that for `CS(=O)(=O)Nc1ccc2c(c1)C(=NO)CC1(CCN(CCc3ccccc3)CC1)O2`, 95 to 99 °C.

For the compound `Cc1cc(C)cc(S(=O)(=O)c2ccc([N+](=O)[O-])cc2)c1`, the melting point was 179 to 180 °C. For `CC(=O)n1ncc2c(O)cc(C)cc21`, the melting point fell in the range of 191 to 192 °C. For `O=Cc1cccc2oc3ccccc3c12` the value was 66 to 68 °C. `Cc1nc(N)c(C#N)c(NCc2cncc(Br)c2)n1` yielded a melting point of 283 to 284 °C.

`COc1ccc(OCc2ccccc2)c2c1OCCO2` gave a melting point of 70 °C. The result for `CC(C)(C)c1cc(CCc2ccccc2NC(=O)NC2CCC(C(C)(C)C)CC2)cc(C(C)(C)C)c1O` (centres undefined) reads 206 to 208 °C; that for `CCOC(=O)Cn1[nH]c(C)c(Cc2cc(Cl)cc(Cl)c2)c1=O`, 183 to 184 °C; that for `Cc1nc(OCC(F)(F)F)c([N+](=O)[O-])c(N2CCC(c3ccc(F)cc3)CC2)n1`, 61 to 64 °C. The result for `Nc1ccc(C(CC2CCCC2)C(=O)O)cc1` (centres undefined) reads 167 to 169 °C; that for `COc1ccc2c(OC(C)C)c(C(N)=O)sc2c1`, 164 to 166 °C; that for `CNC(=O)c1ccc(-c2ccc(NC(=O)NCc3cccnc3)cc2)nc1NCc1ccncc1`, 218 to 219 °C. The result for `O=c1[nH][nH]c(=O)c2nc3cc(Cl)ccc3cc12` reads 353 to 355 °C; that for `CNC(=O)[C@H](Cc1ccc(OC)cc1)NC(=O)[C@H](CC(C)C)N[C@H](CCC(=O)NCc1ccccc1)C(=O)O`, 104 to 108 °C; that for `O=C(Nc1cccc2c(Cn3ccnc3)ccnc12)c1c(Cl)cccc1Cl`, more than 250 °C. `C[C@H](CI)[C@H]1CC[C@H]2[C@@H](O[Si](C)(C)C(C)(C)C)CCC[C@]12C` came in with a melting point of 40 to 41 °C.

Regarding `CSC(C#N)c1cccc(C(=O)c2ccccc2)c1N` (centres undefined), the melting point was in the range of 107 to 108 °C.

`CCCc1nc(/C=C/c2ccccc2)c(C(=O)OCC)n1Cc1cc2c(cc1Cl)OCO2`: the melting point is 161 °C.

The compound `COC(=O)COc1ccc2cc(-c3cnc(Cc4ccc5ccccc5c4)o3)ccc2c1` came in with a melting point of 147 to 149 °C. The compound `NC(=O)N(O)C[C@H]1C[C@@H](c2ccc(C(F)(F)F)cc2)C1` gave a melting point of 144 to 146 °C. The result for `CCOC(=O)[C@H](Cc1cccc(Oc2ccc(O)cc2)c1)NC(=O)C(F)(F)F` reads 109 to 111 °C; that for `N#CCC(=O)Nc1ccnn1-c1c(Cl)cc(C(F)(F)F)cc1Cl`, 169 to 175 °C. Consider `O=C1Cc2ccc(C3CCCCC3)cc2O1`, for which the melting point lay within 80 to 81 °C.

The compound `I[Si](c1ccccc1)(c1ccccc1)c1ccccc1` showed a melting point of 221 to 225 °C. For `C=CCON=C(CCC)C1=C(O)CC(c2ccc(OC)c(NC(C)=O)c2)CC1=O` (centres undefined) the value was 136 to 137 °C; for `CCOP(=O)(CN(CCCc1ccccc1)C(=O)Cc1cc(C(C)(C)C)c(O)c(C(C)(C)C)c1)OCC`, 134 to 136 °C. Turning to `Cc1ccccc1-c1cc(=O)c(C)c(-c2ccccc2)n1-c1ccccc1`, the melting point lay in the range of 188 to 191 °C. For `CCOc1ccccc1-c1ccc2c(c1)C=C(C(=O)Nc1ccc(CN(C)C3CCOCC3)cc1)CCS2(=O)=O` the value was 171 to 173 °C; for `CN(C)S(=O)(=O)c1cc(-n2c(=O)cc(C(F)(F)F)[nH]c2=O)ccc1Cl`, 281 to 283 °C. For `COc1ccc2cc(C(=O)[C@H](C)Br)ccc2c1` the value was 90 to 91 °C.

`Cc1[nH]c(C(=O)N2CCC(C(=O)NCC3CCCCC3)CC2)c(C)c1-c1nc2ccc(C(=O)c3ccccc3)cc2[nH]1` showed a melting point of 274 to 276 °C.
